Source: patent US20260217673A1, “NOVEL COMPOUND AS RON INHIBITOR” (LG CHEM, LTD., priority 2022, published 2026)

Assays:
cMET = cMET (Homo sapiens, UniProt P08581); assay: MET (cMET) enzyme inhibitory activity, TR-FRET kinase assay; assay type: biochemical; conditions: cMET protein, TK peptide substrate
Method: In addition, to measure cMET enzyme activity inhibition, an experiment was performed by the same method as the experiment for measuring the RON enzyme activity inhibition.
Specifically, the compound was prepared at a concentration of 1 mM with 100% DMSO and serially diluted 10 times through 3-fold dilution. 2 μl of the serially diluted compound was added to a 96-well plate containing 48 μl 1× kinase reaction buffer (50 mM HEPES (pH 7.4), 0.05% BSA, 0.005% Tween-20, 1 mM DTT, 0.5 mM MnCl2, 20 mM MgCl2).
The cMET protein was diluted in a cMET storage buffer (50 mM Tris-HCl (pH 7.5), 150 mM NaCl, 0.05% Brij35, 1 mM DTT, 10% glycerol) to a concentration of 263 nM, and then diluted again with 1× kinase reaction buffer to 2 nM. As a substrate cocktail, a MET-specific substrate mixture (5 μM TK peptide, 10 mM ATP) was prepared at a concentration twice the final reaction concentration.
(§1) After that, a 384-well plate was prepared, and 2.5 μl of the diluted example compound was added to each of the experimental group wells, and 2.5 μl of a 4% DMSO solution was dispensed into high control wells and low control wells.
(§2) Afterward, 2.5 μl of 2 nM cMET was dispensed to the high control wells and the experimental group wells, and 2.5 μl of 1× kinase reaction buffer was added to the low control wells, and after centrifugation at 1000 RPM for 40 seconds at room temperature, the mixtures were incubated at room temperature for 20 to 30 minutes. Then, 5 μl of the substrate cocktail (2×) was dispensed into all wells, and after centrifugation at 1000 RPM for 40 seconds at room temperature, the mixtures were incubated at room temperature for 60 minutes. Afterward, 5 μl of 90 mM EDTA was added to all wells to terminate the reaction, and the mixtures were incubated again at room temperature for 5 minutes. Thereafter, 5 μl of 4× phosphotyrosine antibodies (Perkin Elmer) containing europium was added to all wells and incubated at room temperature for 60 minutes. After the incubation, the 384-well-plate was read with a Vison plate reader. At this time, the excitation wavelength was 340 nm, and the emission wavelengths were 620 nm and 665 nm. The IC50 value of each example compound was derived using the GraphPd Prism7 program.

RON = RON (Homo sapiens, UniProt Q04912); assay: RON inhibitory activity, TR-FRET kinase assay; assay type: biochemical; conditions: RON protein, ULight-labeled Poly GT substrate
RON, sequence (Q04912 25-1400, species assumed): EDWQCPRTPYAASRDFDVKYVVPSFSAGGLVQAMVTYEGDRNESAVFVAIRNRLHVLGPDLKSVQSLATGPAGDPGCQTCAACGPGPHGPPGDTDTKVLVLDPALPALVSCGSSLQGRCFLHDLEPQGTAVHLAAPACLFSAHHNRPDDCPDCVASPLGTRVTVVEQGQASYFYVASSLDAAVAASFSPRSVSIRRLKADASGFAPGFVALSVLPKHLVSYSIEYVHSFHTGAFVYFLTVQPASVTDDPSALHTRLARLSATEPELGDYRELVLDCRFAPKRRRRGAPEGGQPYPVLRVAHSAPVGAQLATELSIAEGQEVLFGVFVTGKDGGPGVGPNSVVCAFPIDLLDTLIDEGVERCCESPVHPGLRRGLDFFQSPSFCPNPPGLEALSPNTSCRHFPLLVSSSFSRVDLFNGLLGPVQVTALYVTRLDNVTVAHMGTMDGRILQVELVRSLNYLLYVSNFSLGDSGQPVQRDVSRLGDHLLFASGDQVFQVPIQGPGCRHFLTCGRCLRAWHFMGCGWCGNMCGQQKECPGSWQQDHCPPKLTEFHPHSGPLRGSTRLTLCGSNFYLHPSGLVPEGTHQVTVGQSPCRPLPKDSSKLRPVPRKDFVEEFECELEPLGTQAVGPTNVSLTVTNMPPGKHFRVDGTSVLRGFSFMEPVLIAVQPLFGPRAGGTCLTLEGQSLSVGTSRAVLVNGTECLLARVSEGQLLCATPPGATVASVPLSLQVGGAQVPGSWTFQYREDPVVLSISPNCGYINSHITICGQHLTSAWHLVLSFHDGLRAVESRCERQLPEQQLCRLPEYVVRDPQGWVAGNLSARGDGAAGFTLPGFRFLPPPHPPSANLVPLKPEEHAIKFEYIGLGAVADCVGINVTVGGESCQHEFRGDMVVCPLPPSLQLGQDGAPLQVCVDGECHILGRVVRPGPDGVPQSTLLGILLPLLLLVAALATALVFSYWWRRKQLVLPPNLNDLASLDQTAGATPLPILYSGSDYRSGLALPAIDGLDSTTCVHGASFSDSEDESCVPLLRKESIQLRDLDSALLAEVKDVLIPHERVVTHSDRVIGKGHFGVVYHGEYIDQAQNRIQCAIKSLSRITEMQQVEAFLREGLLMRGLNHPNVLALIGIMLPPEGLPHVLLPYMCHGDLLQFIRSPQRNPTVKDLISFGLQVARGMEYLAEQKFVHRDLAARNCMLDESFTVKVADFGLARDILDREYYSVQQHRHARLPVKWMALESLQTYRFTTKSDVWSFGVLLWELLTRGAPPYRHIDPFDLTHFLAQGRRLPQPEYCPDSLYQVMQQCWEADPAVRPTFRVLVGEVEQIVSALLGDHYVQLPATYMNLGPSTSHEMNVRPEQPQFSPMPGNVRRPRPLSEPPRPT
Method: To measure the RON inhibitory activity of the example compounds, the IC50 of the compounds was measured using time-resolved fluorescence energy transfer (TR-FRET).
Specifically, the compound was prepared at a concentration of 1 mM with 100% DMSO and serially diluted 10 times through 3-fold dilution. 2 μl of the serially diluted compound was added to a 96-well plate containing 48 μl of 1× kinase reaction buffer (50 mM HEPES (pH 7.4), 0.01% Tween-20, 5 mM DTT, 0.5 mM Na3VO4, 2 mM EGTA, 10 mM MgCl2).
The RON protein was diluted with a RON storage buffer (50 mM Tris-HCl (pH 7.5), 150 mM NaCl, 0.5 mM EDTA, 0.02% Triton X-100) to a concentration of 49.3 nM, and then diluted again with 1× kinase reaction buffer to be 0.4 nM. As a substrate cocktail, a RON-specific substrate mixture (40 μM ULight-labeled Poly GT, 100 nM ATP) was prepared at a concentration twice the final reaction concentration.
as §1
as §2, with “of 0.4” for “of 2”, “nM RON” for “nM cMET”, “dispensed into” for “dispensed to”, “of 30” for “of 90”

cMET, sequence (P08581 25-1390): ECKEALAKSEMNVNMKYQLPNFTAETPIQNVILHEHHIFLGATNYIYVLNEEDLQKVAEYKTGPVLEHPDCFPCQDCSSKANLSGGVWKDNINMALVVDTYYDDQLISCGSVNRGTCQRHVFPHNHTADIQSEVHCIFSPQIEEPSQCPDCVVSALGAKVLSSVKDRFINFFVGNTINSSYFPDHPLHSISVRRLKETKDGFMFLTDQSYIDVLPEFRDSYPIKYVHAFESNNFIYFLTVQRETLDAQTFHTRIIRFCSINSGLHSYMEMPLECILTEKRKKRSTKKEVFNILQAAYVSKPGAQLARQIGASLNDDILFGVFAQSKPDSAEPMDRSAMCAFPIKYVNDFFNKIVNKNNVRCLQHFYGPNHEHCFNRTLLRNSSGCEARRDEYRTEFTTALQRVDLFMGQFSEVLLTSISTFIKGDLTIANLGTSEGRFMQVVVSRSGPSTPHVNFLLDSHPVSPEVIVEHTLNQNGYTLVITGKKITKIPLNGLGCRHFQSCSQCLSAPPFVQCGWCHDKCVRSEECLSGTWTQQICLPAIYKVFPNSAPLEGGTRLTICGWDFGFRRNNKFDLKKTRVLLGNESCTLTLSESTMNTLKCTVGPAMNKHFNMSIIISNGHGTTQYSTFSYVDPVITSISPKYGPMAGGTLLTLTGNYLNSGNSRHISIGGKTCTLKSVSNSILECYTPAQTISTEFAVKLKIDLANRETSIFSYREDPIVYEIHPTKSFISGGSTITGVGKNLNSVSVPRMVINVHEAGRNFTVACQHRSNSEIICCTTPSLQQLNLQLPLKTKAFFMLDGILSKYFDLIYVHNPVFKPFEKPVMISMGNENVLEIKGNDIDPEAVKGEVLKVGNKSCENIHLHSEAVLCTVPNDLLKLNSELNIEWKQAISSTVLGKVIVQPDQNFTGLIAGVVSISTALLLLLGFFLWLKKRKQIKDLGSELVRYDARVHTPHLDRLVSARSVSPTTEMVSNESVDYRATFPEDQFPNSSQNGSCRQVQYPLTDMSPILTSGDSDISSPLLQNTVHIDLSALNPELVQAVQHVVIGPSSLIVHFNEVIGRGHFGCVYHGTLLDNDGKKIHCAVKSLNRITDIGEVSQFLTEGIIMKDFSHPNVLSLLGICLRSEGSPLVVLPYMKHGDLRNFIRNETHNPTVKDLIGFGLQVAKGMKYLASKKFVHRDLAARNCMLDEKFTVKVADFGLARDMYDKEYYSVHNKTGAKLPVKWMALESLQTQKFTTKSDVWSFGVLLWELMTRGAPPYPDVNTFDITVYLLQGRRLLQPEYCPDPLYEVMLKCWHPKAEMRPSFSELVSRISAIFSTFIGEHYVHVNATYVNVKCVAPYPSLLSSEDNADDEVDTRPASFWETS

| Structure (SMILES) | IC50 (cMET) [nM] | IC50 (RON) [nM] |
| --- | --- | --- |
| C#Cc1c(Oc2c(F)cc(NC(=O)c3cnn(-c4ncccc4Cl)c3C(F)(F)F)cc2F)ccnc1N [Example 27, N-(4-((2-amino-3-ethynylpyridin-4-yl)oxy)-3,5-difluorophenyl)-1-(3-chloropyridin-2-yl)-5-(trifluoromethyl)-1H-pyrazole-4-carboxamide] | 50 to 500 | < 50 |
| Nc1nccc(Oc2c(F)cc(NC(=O)c3cnn(-c4ccccc4)c3C(F)(F)F)cc2F)c1I [Example 13, N-(4-((2-amino-3-iodopyridin-4-yl)oxy)-3,5-difluorophenyl)-1-phenyl-5-(trifluoromethyl)-1H-pyrazole-4-carboxamide] | 500 to 5000 | < 50 |
| Nc1nccc(Oc2c(F)cc(NC(=O)c3cnn(-c4ncccc4Cl)c3C(F)(F)F)cc2F)c1CN1CCOCC1 [Example 49, N-(4-((2-amino-3-(morpholinomethyl)pyridin-4-yl)oxy)-3,5-difluorophenyl)-1-(3-chloropyridin-2-yl)-5-(trifluoromethyl)-1H-pyrazole-4-carboxamide] | 500 to 5000 | < 50 |
| Nc1nccc(Oc2c(F)cc(NC(=O)c3cnn(-c4ncccc4Cl)c3C(F)(F)F)cc2F)c1C#CCO [Example 54, N-(4-((2-amino-3-(3-hydroxyprop-1-yn-1-yl)pyridin-4-yl)oxy)-3,5-difluorophenyl)-1-(3-chloropyridin-2-yl)-5-(trifluoromethyl)-1H-pyrazole-4-carboxamide] | 50 to 500 | < 50 |
| Nc1nccc(Oc2c(F)cc(NC(=O)c3cnn(-c4ncccc4F)c3C(F)(F)F)cc2F)c1C1CC1 [Example 38, N-(4-((2-amino-3-cyclopropylpyridin-4-yl)oxy)-3,5-difluorophenyl)-1-(3-fluoropyridin-2-yl)-5-(trifluoromethyl)-1H-pyrazole-4-carboxamide] | 500 to 5000 | < 50 |
| CC(C)c1c(Oc2c(F)cc(NC(=O)c3cnn(-c4ncccn4)c3C(F)(F)F)cc2F)ccnc1N [Example 45, N-(4-((2-amino-3-isopropylpyridin-4-yl)oxy)-3,5-difluorophenyl)-1-(pyrimidin-2-yl)-5-(trifluoromethyl)-1H-pyrazole-4-carboxamide] | 500 to 5000 | < 50 |
| Nc1nccc(Oc2c(F)cc(NC(=O)c3cnn(-c4ncccn4)c3C(F)(F)F)cc2F)c1C#CCO [Example 55, N-(4-((2-amino-3-(3-hydroxyprop-1-yn-1-yl)pyridin-4-yl)oxy)-3,5-difluorophenyl)-1-(pyrimidin-2-yl)-5-(trifluoromethyl)-1H-pyrazole-4-carboxamide] | 50 to 500 | < 50 |
| N#Cc1c(Oc2c(F)cc(NC(=O)c3cnn(-c4ccccc4)c3C(F)(F)F)cc2F)ccnc1N [Example 31, N-(4-((2-amino-3-cyanopyridin-4-yl)oxy)-3,5-difluorophenyl)-1-phenyl-5-(trifluoromethyl)-1H-pyrazole-4-carboxamide] | 500 to 5000 | < 50 |
| C#Cc1c(Oc2c(F)cc(NC(=O)c3cnn(-c4ccccn4)c3C(F)(F)F)cc2F)ccnc1N [Example 29, N-(4-((2-amino-3-ethynylpyridin-4-yl)oxy)-3,5-difluorophenyl)-1-(pyridin-2-yl)-5-(trifluoromethyl)-1H-pyrazole-4-carboxamide] | 500 to 5000 | < 50 |
| Nc1nccc(Oc2c(F)cc(NC(=O)c3cnn(-c4ncccc4Cl)c3C(F)(F)F)cc2F)c1C1CC1 [Example 39, N-(4-((2-amino-3-cyclopropylpyridin-4-yl)oxy)-3,5-difluorophenyl)-1-(3-chloropyridin-2-yl)-5-(trifluoromethyl)-1H-pyrazole-4-carboxamide] | 500 to 5000 | < 50 |
| Nc1nccc(Oc2c(F)cc(NC(=O)c3cnn(-c4ncccc4F)c3C(F)(F)F)cc2F)c1I [Example 15, N-(4-((2-amino-3-iodopyridin-4-yl)oxy)-3,5-difluorophenyl)-1-(3-fluoropyridin-2-yl)-5-(trifluoromethyl)-1H-pyrazole-4-carboxamide] | 50 to 500 | < 50 |
| Nc1ncnc(Oc2c(F)cc(NC(=O)c3cnn(-c4ncccn4)c3C(F)(F)F)cc2F)c1Cl [Example 12, N-(4-((6-amino-5-chloropyrimidin-4-yl)oxy)-3,5-difluorophenyl)-1-(pyrimidin-2-yl)-5-(trifluoromethyl)-1H-pyrazole-4-carboxamide] | 500 to 5000 | < 50 |
| Nc1ncnc(Oc2c(F)cc(NC(=O)c3cnn(-c4ncccc4F)c3C(F)(F)F)cc2F)c1Cl [Example 10, N-(4-((6-amino-5-chloropyrimidin-4-yl)oxy)-3,5-difluorophenyl)-1-(3-fluoropyridin-2-yl)-5-(trifluoromethyl)-1H-pyrazole-4-carboxamide] | 500 to 5000 | < 50 |
| CC(C)(O)C#Cc1c(Oc2c(F)cc(NC(=O)c3cnn(-c4ncccc4F)c3C(F)(F)F)cc2F)ccnc1N [Example 58, N-(4-((2-amino-3-(3-hydroxy-3-methylbut-1-yn-1-yl)pyridin-4-yl)oxy)-3,5-difluorophenyl)-1-(3-fluoropyridin-2-yl)-5-(trifluoromethyl)-1H-pyrazole-4-carboxamide] | 50 to 500 | < 50 |
| Nc1nccc(Oc2c(F)cc(NC(=O)c3cnn(-c4ncccc4Cl)c3C(F)(F)F)cc2F)c1C1CCOCC1 [Example 21, N-(4-((2-amino-3-(tetrahydro-2H-pyran-4-yl)pyridin-4-yl)oxy)-3,5-difluorophenyl)-1-(3-chloropyridin-2-yl)-5-(trifluoromethyl)-1H-pyrazole-4-carboxamide] | 50 to 500 | < 50 |
| Nc1nccc(Oc2c(F)cc(NC(=O)c3cnn(-c4ccccc4)c3C(F)(F)F)cc2F)c1Cl [Example 1, N-(4-((2-amino-3-chloropyridin-4-yl)oxy)-3,5-difluorophenyl)-1-phenyl-5-(trifluoromethyl)-1H-pyrazole-4-carboxamide] | > 5000 | < 50 |
| Nc1nccc(Oc2c(F)cc(NC(=O)c3cnn(-c4ccccc4)c3C(F)(F)F)cc2F)c1C1CCOCC1 [Example 19, N-(4-((2-amino-3-(tetrahydro-2H-pyran-4-yl)pyridin-4-yl)oxy)-3,5-difluorophenyl)-1-phenyl-5-(trifluoromethyl)-1H-pyrazole-4-carboxamide] | 500 to 5000 | < 50 |
| N#Cc1c(Oc2c(F)cc(NC(=O)c3cnn(-c4ncccn4)c3C(F)(F)F)cc2F)ccnc1N [Example 35, N-(4-((2-amino-3-cyanopyridin-4-yl)oxy)-3,5-difluorophenyl)-1-(pyrimidin-2-yl)-5-(trifluoromethyl)-1H-pyrazole-4-carboxamide] | 500 to 5000 | < 50 |
| C#Cc1c(Oc2c(F)cc(NC(=O)c3cnn(-c4ncccc4F)c3C(F)(F)F)cc2F)ccnc1N [Example 26, N-(4-((2-amino-3-ethynylpyridin-4-yl)oxy)-3,5-difluorophenyl)-1-(3-fluoropyridin-2-yl)-5-(trifluoromethyl)-1H-pyrazole-4-carboxamide] | 500 to 5000 | < 50 |
